Assay results published in US11203613B2, “Peptidomimetic proteasome inhibitors” (CORNELL UNIVERSITY, priority 2017, dated 2021).

Target: Human Constitutive (Hu C-20S) β5 Active Subunit (Homo sapiens, UniProt P28074)
Assay: IC50 determination, human constitutive 20S proteasome β5c (suc-LLVY-AMC hydrolysis)
Assay type: biochemical
Conditions: Table 3; IC50 against human constitutive β5 active subunit; read-out: Hu-C20S β5

| SMILES | IC50 [µM] |
| --- | --- |
| C[C@H](NC(=O)[C@H](CC(=O)N1CCCC[C@@H]1C)NC(=O)CC1CC1)c1ncc(-c2ccc(F)cc2F)[nH]1 [CEN-81, (S)-2-(2-Cyclopropylacetamido)-N—((S)-1-(5-(2,4-difluorophenyl)-1H-imidazol-2-yl)ethyl)-4-((S)-2-methylpiperidin-1-yl)-4-oxobutanamide] | 10.5 |
| C[C@H](NC(=O)[C@H](CC(=O)N1CCCC[C@@H]1C)NS(=O)(=O)CCC1CC1)c1ncc(-c2ccc(F)cc2F)[nH]1 [CEN-108, (S)-2-((2-Cyclopropylethyl)sulfonamido)-N—((S)-1-(5-(2,4-difluorophenyl)-1H-imidazol-2-yl)ethyl)-4-((S)-2-methylpiperidin-1-yl)-4-oxobutanamide] | 6.2 |
| CC[C@H]1CCCCN1C(=O)C[C@H](Nc1nc2ccccc2s1)C(=O)N[C@@H](C)c1nc2c(F)cccc2[nH]1 [CEN-22, (S)-2-(Benzo[d]thiazol-2-ylamino)-4-((S)-2-ethylpiperidin-1-yl)-N—((S)-1-(4-fluoro-1H-benzo[d]imidazol-2-yl)ethyl)-4-oxobutanamide] | 1.2 |
| CC(C)CCC(=O)N[C@@H](CC(=O)N1CCCC[C@@H]1C)C(=O)N[C@H](C)c1nc2ccccc2[nH]1 [CEN-34, N—((S)-1-(((R)-1-(1H-Benzo[d]imidazol-2-yl)ethyl)amino)-4-((S)-2-methylpiperidin-1-yl)-1,4-dioxobutan-2-yl)-4-methylpentanamide] | 15.6 |
| CCS(=O)(=O)N[C@@H](CC(=O)N1CCCC[C@@H]1C)C(=O)N[C@@H](C)c1ncc(-c2ccc(F)cc2F)[nH]1 [CEN-86, (S)—N—((S)-1-(5-(2,4-Difluorophenyl)-1H-imidazol-2-yl)ethyl)-2-(ethylsulfonamido)-4-((S)-2-methylpiperidin-1-yl)-4-oxobutanamide] | 28.2 |
| CC(C)CCC(=O)N[C@@H](CC(=O)N1CCCCC1C(C)C)C(=O)N[C@@H](C)c1ncc(-c2ccc(F)cc2F)[nH]1 (stereo partly drawn) [CEN-107, N-((2S)-1-(((S)-1-(5-(2,4-Difluorophenyl)-1H-imidazol-2-yl)ethyl)amino)-4-(2-isopropylpiperidin-1-yl)-1,4-dioxobutan-2-yl)-4-methylpentanamide] | 2.8 |
| CC[C@H]1CCCCN1C(=O)C[C@H](NC(=O)CCC(C)C)C(=O)N[C@@H](C)c1nc2c(F)cccc2[nH]1 [CEN-3, N—((S)-4-((S)-2-Ethylpiperidin-1-yl)-1-(((S)-1-(4-fluoro-1H-benzo[d]imidazol-2-yl)ethyl)amino)-1,4-dioxobutan-2-yl)-4-methylpentanamide] | 10.6 |
| Cc1cc(C(=O)N[C@@H](CC(=O)N2CCCC[C@@H]2C)C(=O)N[C@@H](C)c2nc3ccccc3[nH]2)no1 [CEN-36, N—((S)-1-(((S)-1-(1H-Benzo[d]imidazol-2-yl)ethyl)amino)-4-((S)-2-methylpiperidin-1-yl)-1,4-dioxobutan-2-yl)-5-methylisoxazole-3-carboxamide] | 17.5 |
| CC[C@H]1CCCCN1C(=O)C[C@H](NC(=O)[C@H]1C[C@@H]1c1ccccc1)C(=O)N[C@@H](C)c1nc2c(F)cccc2[nH]1 [CEN-25, (1S,2S)—N—((S)-4-((S)-2-Ethylpiperidin-1-yl)-1-(((S)-1-(4-fluoro-1H-benzo[d]imidazol-2-yl)ethyl)amino)-1,4-dioxobutan-2-yl)-2-phenylcyclopropane-1-carboxamide] | 8.1 |
| CC[C@H]1CCCCN1C(=O)C[C@H](Nc1nc(C(C)C)no1)C(=O)N[C@@H](C)c1nc2c(F)cccc2[nH]1 [CEN-8, (S)-4-((S)-2-Ethylpiperidin-1-yl)-N—((S)-1-(4-fluoro-1H-benzo[d]imidazol-2-yl)ethyl)-2-((3-isopropyl-1,2,4-oxadiazol-5-yl)amino)-4-oxobutanamide] | 3.6 |
| CC(C)c1noc(N[C@@H](CC(=O)N2CCCC[C@@H]2C)C(=O)N[C@@H](C)c2ncc(-c3ccc(F)cc3F)[nH]2)n1 [CEN-95, (S)—N—((S)-1-(5-(2,4-Difluorophenyl)-1H-imidazol-2-yl)ethyl)-2-((3-isopropyl-1,2,4-oxadiazol-5-yl)amino)-4-((S)-2-methylpiperidin-1-yl)-4-oxobutanamide] | 2.3 |
| Cc1cc(C(=O)N[C@@H](CC(=O)N2CCCC[C@@H]2C)C(=O)N[C@@H](C)c2ncc(-c3ccc(F)cc3)[nH]2)no1 [CEN-119, N—((S)-1-(((S)-1-(5-(4-Fluorophenyl)-1H-imidazol-2-yl)ethyl)amino)-4-((S)-2-methylpiperidin-1-yl)-1,4-dioxobutan-2-yl)-5-methylisoxazole-3-carboxamide] | 18 |
| CC[C@H]1CCCCN1C(=O)C[C@H](NC(=O)C1CC(C)(C)C1)C(=O)N[C@@H](C)c1nc2c(F)cccc2[nH]1 [CEN-9, N—((S)-4-((S)-2-Ethylpiperidin-1-yl)-1-(((S)-1-(4-fluoro-1H-benzo[d]imidazol-2-yl)ethyl)amino)-1,4-dioxobutan-2-yl)-3,3-dimethylcyclobutane-1-carboxamide] | 4.4 |
| CC(C)CCS(=O)(=O)N[C@@H](CC(=O)N1CCC[C@@H]1c1ccccc1)C(=O)N[C@H](C)c1nc2ccccc2[nH]1 [CEN-60, (S)—N—((R)-1-(1H-Benzo[d]imidazol-2-yl)ethyl)-2-((3-methylbutyl)sulfonamido)-4-oxo-4-((R)-2-phenylpyrrolidin-1-yl)butanamide] | 10.7 |
| CC[C@H]1CCCCN1C(=O)C[C@H](NC(=O)c1cc(C)on1)C(=O)N[C@@H](C)c1nc2c(F)cccc2[nH]1 [CEN-6, N—((S)-4-((S)-2-Ethylpiperidin-1-yl)-1-(((S)-1-(4-fluoro-1H-benzo[d]imidazol-2-yl)ethyl)amino)-1,4-dioxobutan-2-yl)-5-methylisoxazole-3-carboxamide] | 7.1 |
| CC(C)CCC(=O)N[C@@H](CC(=O)N1CCC[C@@H]1c1ccccc1)C(=O)NC(C)c1nc2ccccc2[nH]1 (stereo partly drawn) [CEN-47, N-((2S)-1-((1-(1H-Benzo[d]imidazol-2-yl)ethyl)amino)-1,4-dioxo-4-((R)-2-phenylpyrrolidin-1-yl)butan-2-yl)-4-methylpentanamide] | 29.4 |
| C[C@H](NC(=O)[C@H](CC(=O)N1CCC[C@@H]1c1ccccc1)NC(=O)CCCC(F)(F)F)c1nc2ccccc2n1C [CEN-65, 5,5,5-Trifluoro-N—((S)-1-(((S)-1-(1-methyl-1H-benzo[d]imidazol-2-yl)ethyl)amino)-1,4-dioxo-4-((R)-2-phenylpyrrolidin-1-yl)butan-2-yl)pentanamide] | > 100 |
| Cc1cc(C(=O)N[C@@H](CC(=O)N2CCC[C@@H]2c2ccccc2)C(=O)N[C@@H](C)c2ncc(-c3ccccc3)[nH]2)no1 [CEN-120, N—((S)-1,4-Dioxo-1-(((S)-1-(5-phenyl-1H-imidazol-2-yl)ethyl)amino)-4-((R)-2-phenylpyrrolidin-1-yl)butan-2-yl)-5-methylisoxazole-3-carboxamide] | > 100 |
| C[C@H](NC(=O)[C@H](CC(=O)N1CCCC[C@@H]1C)Nc1nc2ccccc2o1)c1ncc(-c2ccc(F)cc2F)[nH]1 [CEN-109, (S)-2-(Benzo[d]oxazol-2-ylamino)-N—((S)-1-(5-(2,4-difluorophenyl)-1H-imidazol-2-yl)ethyl)-4-((S)-2-methylpiperidin-1-yl)-4-oxobutanamide] | 7.3 |
| CC[C@H]1CCCCN1C(=O)C[C@H](NC(=O)CCC(C)C)C(=O)N[C@@H](C)c1nc2c(F)cc(F)cc2[nH]1 [CEN-45, N—((S)-1-(((S)-1-(4,6-Difluoro-1H-benzo[d]Imidazol-2-yl)ethyl)amino)-4-((S)-2-ethylpiperidin-1-yl)-1,4-dioxobutan-2-yl)-4-methylpentanamide] | 4.1 |
| C[C@H](NC(=O)[C@H](CC(=O)N1CCCC[C@@H]1C)NS(=O)(=O)Cc1ccccc1)c1ncc(-c2ccc(F)cc2F)[nH]1 [CEN-112, (S)—N—((S)-1-(5-(2,4-Difluorophenyl)-1H-imidazol-2-yl)ethyl)-4-((S)-2-methylpiperidin-1-yl)-4-oxo-2-((phenylmethyl)sulfonamido)butanamide] | 6.1 |
| C[C@H](NC(=O)[C@H](CC(=O)N1CCCC[C@@H]1C)NC(=O)[C@H]1C[C@@H]1c1ccccc1)c1nc2c(F)cccc2[nH]1 [CEN-55, (1S,2S)—N—((S)-1-(((S)-1-(4-Fluoro-1H-benzo[d]Imidazol-2-yl)ethyl)amino)-4-((S)-2-methylpiperidin-1-yl)-1,4-dioxobutan-2-yl)-2-phenylcyclopropane-1-carboxamide] | 12.3 |
| CC[C@H]1CCCCN1C(=O)C[C@H](NC(=O)CCC(C)C)C(=O)N[C@@H](C)c1ncc(-c2ccc(F)cc2F)[nH]1 [CEN-100, N—((S)-1-(((S)-1-(5-(2,4-Difluorophenyl)-1H-imidazol-2-yl)ethyl)amino)-4-((S)-2-ethylpiperidin-1-yl)-1,4-dioxobutan-2-yl)-4-methylpentanamide] | 4.4 |
| Cc1cc(C(=O)N[C@@H](CC(=O)N2CCC[C@@H]2c2ccccc2)C(=O)N[C@@H](C)c2ncc(-c3ccc(F)cc3F)[nH]2)no1 [CEN-115, N—((S)-1-(((S)-1-(5-(2,4-Difluorophenyl)-1H-imidazol-2-yl)ethyl)amino)-1,4-dioxo-4-((R)-2-phenylpyrrolidin-1-yl)butan-2-yl)-5-methylisoxazole-3-carboxamide] | > 100 |
| CC(C)CCS(=O)(=O)N[C@@H](CC(=O)N1CCC[C@@H]1c1ccccc1)C(=O)N[C@@H](C)c1nc2ccccc2[nH]1 [CEN-59, (S)—N—((S)-1-(1H-Benzo[d]imidazol-2-yl)ethyl)-2-((3-methylbutyl)sulfonamido)-4-oxo-4-((R)-2-phenylpyrrolidin-1-yl)butanamide] | 10 |
| C[C@H](NC(=O)[C@H](CC(=O)N1CCCC[C@@H]1C)NC(=O)C1CCC1)c1ncc(-c2ccc(F)cc2F)[nH]1 [CEN-82, N—((S)-1-(((S)-1-(5-(2,4-Difluorophenyl)-1H-imidazol-2-yl)ethyl)amino)-4-((S)-2-methylpiperidin-1-yl)-1,4-dioxobutan-2-yl)cyclobutanecarboxamide] | 2.4 |
| CC(C)CCC(=O)N[C@@H](CC(=O)N1CCCC[C@@H]1C)C(=O)N[C@@H](C)c1ncc(-c2ccc(F)cc2F)[nH]1 [CEN-88, N—((S)-1-(((S)-1-(5-(2,4-Difluorophenyl)-1H-imidazol-2-yl)ethyl)amino)-4-((S)-2-methylpiperidin-1-yl)-1,4-dioxobutan-2-yl)-4-methylpentanamide] | 15.1 |
